Structures can show the parent of a compound that is named as a salt.

Results on 25 compounds are retold here after patent US10259808B2 (Genentech, Inc., priority 2015, dated 2019).

The target in one assay is T1, RORc ligand binding domain (Homo sapiens, UniProt P51449).
T1 sequence (P51449 269-508 limits assumed): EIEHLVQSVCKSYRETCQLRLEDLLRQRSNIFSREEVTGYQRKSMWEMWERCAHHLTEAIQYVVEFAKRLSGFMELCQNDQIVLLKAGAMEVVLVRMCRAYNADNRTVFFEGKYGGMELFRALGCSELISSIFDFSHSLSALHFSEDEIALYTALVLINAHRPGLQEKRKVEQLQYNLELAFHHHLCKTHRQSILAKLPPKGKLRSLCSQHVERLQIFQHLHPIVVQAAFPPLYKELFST
The experiment in a line: In vitro RORc ligand binding assay (25-[3H]hydroxycholesterol displacement).
Conditions: not given
For `C[C@H]1CC[C@H](c2ccccc2)S(=O)(=O)N1Cc1ccc(C2(C(=O)n3nccc3N)CCOCC2)cc1F`, the half-inhibitory concentration (IC50) – broadly, the concentration that gives 50% inhibition – turned out to be 19.6 nM.

`Cc1nnc(COCC2(c3ccc(CN4[C@@H](C)CC[C@H](c5ccccc5)S4(=O)=O)c(F)c3)CCOCC2)o1`: the IC50 turned out to be 90.3 nM.

The compound `C[C@H]1CC[C@H](c2ccccc2)S(=O)(=O)N1Cc1ccc(C2(C(=O)NC3CCOCC3)CCOCC2)cc1F` displayed an IC50 of 171 nM.

Compound `C[C@H]1CC[C@@H](c2ccccc2)S(=O)(=O)N1Cc1cc(F)c([C@]2(c3c[nH]c(=O)o3)C[C@@](O)(C3(C)CC3)C2)cc1F` (racemic) [Example 166, 5-[1-[2,5-difluoro-4-[[rac-(3S,6S)-3-methyl-1,1-dioxo-6-phenyl-thiazinan-2-yl]methyl]phenyl]-3-hydroxy-3-(1-methylcyclopropyl)cyclobutyl]-3H-oxazol-2-one] gave an IC50 of 15.5 nM.

Take `C[C@H]1CC[C@H](c2ccccc2)S(=O)(=O)N1Cc1cc(F)c([C@]2(c3nn(C)c(=O)[nH]3)C[C@@](C)(O)C2)cc1F` (racemic) [Example 168, 5-[1-[2,5-difluoro-4-[[rac-(3S,6R)-3-methyl-1,1-dioxo-6-phenyl-thiazinan-2-yl]methyl]phenyl]-3-hydroxy-3-methyl-cyclobutyl]-2-methyl-4H-1,2,4-triazol-3-one]: the IC50 came out at 39.8 nM.

Regarding `COC[C@]1(O)C[C@@](c2n[nH]c(=O)o2)(c2cc(F)c(CN3[C@@H](C)CC[C@H](c4ccccc4)S3(=O)=O)cc2F)C1` (racemic) [Example 169, 5-[1-[2,5-difluoro-4-[[rac-(3S,6R)-3-methyl-1,1-dioxo-6-phenyl-thiazinan-2-yl]methyl]phenyl]-3-hydroxy-3-(methoxymethyl)cyclobutyl]-3H-1,3,4-oxadiazol-2-one], the IC50 amounted to 6.4 nM.

The compound `C[C@H]1CC[C@H](c2ccccc2)S(=O)(=O)N1Cc1cc(F)c([C@]2([C@@H](O)Cc3ncn[nH]3)C[C@](C)(O)C2)cc1F` (racemic) [Example 170, 3-[2,5-difluoro-4-[[rac-(3S,6R)-3-methyl-1,1-dioxo-6-phenyl-thiazinan-2-yl]methyl]phenyl]-1-methyl-3-[rac-(1S)-1-hydroxy-2-(1H-1,2,4-triazol-5-yl)ethyl]cyclobutanol] displayed an IC50 of 29.5 nM.

`C[C@H]1CC[C@H](c2ccccc2)S(=O)(=O)N1Cc1cc(F)c([C@]2([C@H](O)Cc3ncn[nH]3)C[C@](C)(O)C2)cc1F` (racemic) [Example 171, 3-[2,5-difluoro-4-[[rac-(3S,6R)-3-methyl-1,1-dioxo-6-phenyl-thiazinan-2-yl]methyl]phenyl]-1-methyl-3-[rac-(1R)-1-hydroxy-2-(1H-1,2,4-triazol-5-yl)ethyl]cyclobutanol] yielded an IC50 of 50.3 nM. This IC50 is about 1.7-fold higher than that of the compound before.

With `C[C@H]1CC[C@H](c2ccccc2)S(=O)(=O)N1Cc1cc(F)c([C@]2([C@H]3CNC(=O)O3)C[C@](C)(O)C2)cc1F` (racemic) [Example 172, rac-(5S)-5-[1-[2,5-difluoro-4-[[rac-(3S,6R)-3-methyl-1,1-dioxo-6-phenyl-thiazinan-2-yl]methyl]phenyl]-3-hydroxy-3-methyl-cyclobutyl]oxazolidin-2-one], the IC50 came out at 51.9 nM.

`C[C@H]1CC[C@H](c2ccccc2)S(=O)(=O)N1Cc1cc(F)c([C@]2(c3n[nH]c(=O)o3)C[C@](C)(N)C2)cc1F` (racemic) [Example 173, 5-[3-amino-1-[2,5-difluoro-4-[[rac-(3S,6R)-3-methyl-1,1-dioxo-6-phenyl-thiazinan-2-yl]methyl]phenyl]-3-methyl-cyclobutyl]-3H-1,3,4-oxadiazol-2-one; hydrochloride]: the concentration for half-maximal inhibition (IC50) is 180 nM.

`C[C@H]1CC[C@H](c2ccccc2)S(=O)(=O)N1Cc1cc(F)c([C@]2(c3nn(CC#N)c(=O)o3)C[C@](C)(O)C2)cc1F` (racemic) [Example 174, 2-[5-[1-[2,5-difluoro-4-[[rac-(3S,6R)-3-methyl-1,1-dioxo-6-phenyl-thiazinan-2-yl]methyl]phenyl]-3-hydroxy-3-methyl-cyclobutyl]-2-oxo-1,3,4-oxadiazol-3-yl]acetonitrile] had an IC50 of 23 nM.

On to `C[C@H]1CC[C@H](c2ccccc2)S(=O)(=O)N1Cc1cc(F)c([C@]2(c3noc(=O)[nH]3)C[C@@](C)(O)C2)cc1F` (racemic) [Example 175, 3-[1-[2,5-difluoro-4-[[rac-(3S,6R)-3-methyl-1,1-dioxo-6-phenyl-thiazinan-2-yl]methyl]phenyl]-3-hydroxy-3-methyl-cyclobutyl]-4H-1,2,4-oxadiazol-5-one], for which the half-inhibitory concentration (IC50) stood at 62 nM.

In turn, `C[C@H]1CC[C@H](c2ccccc2)S(=O)(=O)N1Cc1cc(F)c([C@]2(c3n[nH]c(=O)o3)C[C@@](O)(CC#N)C2)cc1F` (racemic) [Example 176, 2-[3-[2,5-difluoro-4-[[rac-(3S,6R)-3-methyl-1,1-dioxo-6-phenyl-thiazinan-2-yl]methyl]phenyl]-1-hydroxy-3-(2-oxo-3H-1,3,4-oxadiazol-5-yl)cyclobutyl]acetonitrile] yielded an IC50 of 5.4 nM.

`C[C@H]1CC[C@H](c2ccccc2)S(=O)(=O)N1Cc1cc(F)c([C@]2(Cn3cn[nH]c3=O)C[C@](C)(O)C2)cc1F` (racemic) [Example 178, 4-[[1-[2,5-difluoro-4-[[rac-(3S,6R)-3-methyl-1,1-dioxo-6-phenyl-thiazinan-2-yl]methyl]phenyl]-3-hydroxy-3-methyl-cyclobutyl]methyl]-1H-l,2,4-triazol-5-one]: the concentration for half-maximal inhibition (IC50) was determined as 6.1 nM.

Regarding `C[C@H]1CC[C@H](c2ccccc2)S(=O)(=O)N1Cc1cc(F)c([C@]2(CN3C(=O)CNC3=O)C[C@](C)(O)C2)cc1F` (racemic) [Example 179, 3-[[1-[2,5-difluoro-4-[[rac-(3S,6R)-3-methyl-1,1-dioxo-6-phenyl-thiazinan-2-yl]methyl]phenyl]-3-hydroxy-3-methyl-cyclobutyl]methyl]imidazolidine-2,4-dione], the IC50 was determined as 6900 nM.

`C[C@H]1CC[C@H](c2ccccc2)S(=O)(=O)N1Cc1cc(F)c([C@]2(COc3cnccn3)C[C@](C)(O)C2)cc1F` (racemic) [Example 180, 3-[2,5-difluoro-4-[[rac-(3S,6R)-3-methyl-1,1-dioxo-6-phenyl-thiazinan-2-yl]methyl]phenyl]-1-methyl-3-(pyrazin-2-yloxymethyl)cyclobutanol] came in with an IC50 of 8 nM.

In the case of `C[C@H]1CC[C@H](c2ccccc2)S(=O)(=O)N1Cc1cc(F)c([C@]2(NC(=O)c3csnn3)C[C@](C)(O)C2)cc1F` (racemic) [Example 181, N-[1-[2,5-difluoro-4-[[rac-(3S,6R)-3-methyl-1,1-dioxo-6-phenyl-thiazinan-2-yl]methyl]phenyl]-3-hydroxy-3-methyl-cyclobutyl]thiadiazole-4-carboxamide], the IC50 was determined as 13 nM.

The compound `C[C@H]1CC[C@H](c2ccccc2)S(=O)(=O)N1Cc1cc(F)c([C@]2(Cn3cncn3)C[C@](C)(O)C2)cc1F` (racemic) [Example 182, 3-[2,5-difluoro-4-[[rac-(3S,6R)-3-methyl-1,1-dioxo-6-phenyl-thiazinan-2-yl]methyl]phenyl]-1-methyl-3-(1,2,4-triazol-1-ylmethyl)cyclobutanol] showed an IC50 of 7.3 nM.

For `C[C@H]1CC[C@H](c2ccccc2)S(=O)(=O)N1Cc1cc(F)c([C@]2(Cn3ncccc3=O)C[C@](C)(O)C2)cc1F` (racemic) [Example 183, 2-[[1-[2,5-difluoro-4-[[rac-(3S,6R)-3-methyl-1,1-dioxo-6-phenyl-thiazinan-2-yl]methyl]phenyl]-3-hydroxy-3-methyl-cyclobutyl]methyl]pyridazin-3-one], the IC50 amounted to 170 nM.

In turn, `C[C@H]1CC[C@H](c2ccccc2)S(=O)(=O)N1Cc1cc(F)c(C2(c3c[nH]c(=O)o3)CC(O)(CC3CC3)C2)cc1F` (mixture of isomers) [Example 184, 5-[3-(cyclopropylmethyl)-1-[2,5-difluoro-4-[[rac-(3S,6R)-3-methyl-1,1-dioxo-6-phenyl-thiazinan-2-yl]methyllphenyl]-3-hydroxy-cyclobutyl]-3H-oxazol-2-one] returned an IC50 of 6.2 nM.

Consider `C[C@H]1CC[C@H](c2ccccc2)S(=O)(=O)N1Cc1cc(F)c([C@]2(c3c[nH]c(=O)[nH]3)C[C@](C)(O)C2)cc1F` (racemic) [Example 185, 4-[1-[2,5-difluoro-4-[[rac-(3S,6R)-3-methyl-1,1-dioxo-6-phenyl-thiazinan-2-yl]methyl]phenyl]-3-hydroxy-3-methyl-cyclobutyl]-1,3-dihydroimidazol-2-one], for which the IC50 is 19 nM.

Take `C[C@H]1CC[C@H](c2ccccc2)S(=O)(=O)N1Cc1cc(F)c([C@]2(c3nc(CO)n[nH]3)C[C@](C)(O)C2)cc1F` (racemic) [Example 186, 3-[2,5-difluoro-4-[[rac-(3S,6R)-3-methyl-1,1-dioxo-6-phenyl-thiazinan-2-yl]methyl]phenyl]-3-[3-(hydroxymethyl)-1H-1,2,4-triazol-5-yl]-1-methyl-cyclobutanol]: the IC50 came to 4.4 nM.

The assay is the same for the next values; noted with them: IC50 values for RORc.
`C[C@H]1CC[C@H](c2ccccc2)S(=O)(=O)N1Cc1cc(F)c(C2(c3c[nH]c(=O)o3)CC(O)C2)cc1F` (mixture of isomers) [Example 163, 5-[1-[2,5-difluoro-4-[[rac-(3S,6R)-3-methyl-1,1-dioxo-6-phenyl-thiazinan-2-yl]methyl]phenyl]-3-hydroxy-cyclobutyl]-3H-oxazol-2-one]: the IC50 was determined as 4.3 nM.

With `C[C@H]1CC[C@H](c2ccccc2)S(=O)(=O)N1Cc1cc(F)c([C@]2(c3nn(C)c(=O)o3)C[C@](C)(O)C2)cc1F` (racemic) [Example 167], the IC50 worked out at 19.2 nM.

For `C[C@H]1CC[C@H](c2ccccc2)S(=O)(=O)N1Cc1cc(F)c(C2(c3c[nH]c(=O)o3)CC(O)C2)cc1F` (mixture of isomers) [Example 177, 5-[1-[2,5-difluoro-4-[[rac-(3S,6R)-3-methyl-1,1-dioxo-6-phenyl-thiazinan-2-yl]methyl]phenyl]-3-hydroxy-cyclobutyl]-3H-oxazol-2-one], the IC50 worked out at 4.3 nM. This IC50 is about 4.5-fold lower than that of the compound before.
